From the supplement of paper PMC7661543
± gives the standard deviation of the averaged measurements.

How the values were obtained:
Assay in all cases: relative cell number vs DMSO control (72 h) (% of DMSO); higher = less growth inhibition (more cells)
Conditions in all cases: sgRNA knockout: sgNT
ZR-75-1 = system: ZR-75-1
Outline: (§1)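 Doxycycline at 100 ng/mL was applied for 6 days to pooled Cas9-engineered breast cancer lines, each holding 12 sgRNA perturbations. The cells were then seeded at 5000 per 96-well and exposed in duplicate for 72 h to four 10-fold doses (10 nM–10 μM or 1 nM–1 μM). Cell numbers were read from sequenced sgRNA and cell-line barcodes using per-sample 293T spike-in standard curves. The reported relative cell number is the percent of the median of DMSO-treated samples.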

BT-20 = system: BT-20
Outline: as §1

HCC-38 = system: HCC-38
Outline: as §1

MDA-MB-231 = system: MDA-MB-231
Outline: as §1

SKBR3 = system: SKBR3
Outline: as §1

| Structure (SMILES) | relative cell number (ZR-75-1; 10 nM) | relative cell number (ZR-75-1; 100 nM) | relative cell number (ZR-75-1; 1000 nM) | relative cell number (ZR-75-1; 10000 nM) | relative cell number (BT-20; 10 nM) | relative cell number (BT-20; 100 nM) | relative cell number (BT-20; 1000 nM) | relative cell number (BT-20; 10000 nM) | relative cell number (HCC-38; 10 nM) | relative cell number (HCC-38; 100 nM) | relative cell number (HCC-38; 1000 nM) | relative cell number (HCC-38; 10000 nM) | relative cell number (MDA-MB-231; 10 nM) | relative cell number (MDA-MB-231; 100 nM) | relative cell number (MDA-MB-231; 1000 nM) | relative cell number (MDA-MB-231; 10000 nM) | relative cell number (SKBR3; 10 nM) | relative cell number (SKBR3; 100 nM) | relative cell number (SKBR3; 1000 nM) | relative cell number (SKBR3; 10000 nM) | relative cell number (ZR-75-1; 1 nM) | relative cell number (BT-20; 1 nM) | relative cell number (HCC-38; 1 nM) | relative cell number (MDA-MB-231; 1 nM) | relative cell number (SKBR3; 1 nM) |
| --- | --- | --- | --- | --- | --- | --- | --- | --- | --- | --- | --- | --- | --- | --- | --- | --- | --- | --- | --- | --- | --- | --- | --- | --- | --- |
| O=C1CCC(N2C(=O)c3ccccc3C2=O)C(=O)N1 (stereo not given) [Thalidomide] | 79.7 ± 19 | 90.8 ± 6.8 | 74.2 ± 13 | 97.2 ± 55 | 118 ± 11 | 91 ± 0.81 | 114 ± 18 | 113 ± 9 | 108 ± 8.4 | 95.3 ± 1.2 | 117 ± 4.4 | 115 ± 10 | 128 ± 37 | 74.8 ± 24 | 102 ± 29 | 124 ± 19 | 109 ± 39 | 59.4 ± 1.9 | 115 ± 17 | 106 ± 2.4 |  |  |  |  |  |
| CN(C)c1cc(NC(=O)CNC(C)(C)C)c(O)c2c1C[C@H]1C[C@H]3[C@H](N(C)C)C(O)=C(C(N)=O)C(=O)[C@@]3(O)C(O)=C1C2=O [Tigecycline] | 91.5 ± 11 | 96.2 ± 29 | 123 ± 24 | 90.1 ± 21 | 104 ± 12 | 97.4 ± 4.4 | 112 ± 24 | 118 ± 3.6 | 87.5 ± 6.1 | 107 ± 30 | 88.8 ± 2.6 | 102 ± 6.5 | 117 ± 16 | 92.1 ± 21 | 123 ± 18 | 83 ± 9.6 | 92.5 ± 19 | 69.1 ± 4.5 | 104 ± 33 | 65.6 ± 5.3 |  |  |  |  |  |
| O=C1NC(=O)[C@@H](c2cn3c4c(cccc24)CCC3)[C@@H]1c1c[nH]c2ccccc12 [Tivantinib] | 69.2 ± 29 | 70.4 ± 1.6 | 20.4 ± 6.4 | 16.6 ± 1.9 | 109 ± 24 | 83.6 ± 12 | 53 ± 6.2 | 26 ± 1.1 | 89.1 ± 20 | 84.9 ± 14 | 39.6 ± 4.2 | 25.8 ± 3.1 | 107 ± 20 | 97.1 ± 6.3 | 34.2 ± 18 | 22.9 ± 13 | 94.9 ± 2.9 | 71.06 ± 0.6 | 19.5 ± 5.7 | 6.47 ± 2 |  |  |  |  |  |
| COc1cc2nccc(Oc3ccc(NC(=O)Nc4cc(C)on4)c(Cl)c3)c2cc1OC [Tivozanib] | 83.6 ± 67 | 101 ± 13 | 115 ± 4.3 | 33.8 ± 12 | 87.3 ± 13 | 75.4 ± 7 | 101 ± 8.1 | 79.4 ± 11 | 94.3 ± 6.2 | 94.5 ± 10 | 98.6 ± 11 | 48.4 ± 2.2 | 101 ± 2.9 | 105 ± 6.9 | 94.7 ± 14 | 63.3 ± 3.9 | 103 ± 5.7 | 97.7 ± 19 | 96.2 ± 3.3 | 62.3 ± 7 |  |  |  |  |  |
| CC[C@@]1(O)C(=O)OCc2c1cc1n(c2=O)Cc2cc3c(CN(C)C)c(O)ccc3nc2-1 [Topotecan] | 65.9 ± 3.4 | 37 ± 5.1 | 14 ± 5.7 | 11.8 ± 9.3 | 73.1 ± 10 | 49 ± 8.1 | 30.9 ± 2.8 | 12.1 ± 3.9 | 52.1 ± 9.8 | 20.9 ± 0.31 | 12.1 ± 1.6 | 8.742 ± 0.069 | 85.1 ± 59 | 26 ± 0.82 | 16.9 ± 1.2 | 8.21 ± 3.3 | 58.7 ± 5.9 | 34.7 ± 19 | 12.1 ± 2.9 | 6.08 ± 3.9 |  |  |  |  |  |
| CC(=O)Nc1cccc(-n2c(=O)n(C3CC3)c(=O)c3c(Nc4ccc(I)cc4F)n(C)c(=O)c(C)c32)c1 [Trametinib] | 101 ± 9.6 | 51.9 ± 2.8 | 43.3 ± 13 | 40.3 ± 22 | 97.3 ± 1.3 | 65.2 ± 12 | 70.5 ± 16 | 82.8 ± 37 | 100 ± 5.3 | 78 ± 5.7 | 79.2 ± 5.8 | 71.3 ± 2.2 | 102 ± 27 | 66.9 ± 6 | 39.9 ± 6 | 20.1 ± 2.6 | 116 ± 3.5 | 72.4 ± 22 | 87 ± 36 | 58.7 ± 19 |  |  |  |  |  |
| CN1CCN(CCCN2c3ccccc3Sc3ccc(C(F)(F)F)cc32)CC1 [Trifluoperazine] | 77.4 ± 46 | 81.3 ± 30 | 80.7 ± 20 | 37.4 ± 5.8 | 80.3 ± 46 | 90.7 ± 11 | 82.4 ± 4.9 | 78.4 ± 15 | 97.3 ± 7 | 86.1 ± 5.2 | 111 ± 8.7 | 80.4 ± 6.6 | 77.9 ± 18 | 117 ± 43 | 99.2 ± 25 | 77.8 ± 7.4 | 57.9 ± 35 | 79 ± 23 | 80.65 ± 0.72 | 50.3 ± 10 |  |  |  |  |  |
| CC(C)[C@]12O[C@H]1[C@@H]1O[C@]13[C@]1(O[C@H]1C[C@H]1C4=C(CC[C@@]13C)C(=O)OC4)[C@@H]2O [Triptolide] | 78 ± 18 | 11.3 ± 8.5 | 7.98 ± 1.1 |  | 94.44 ± 0.19 | 39.9 ± 12 | 20.8 ± 7.7 |  | 66 ± 0.14 | 23.4 ± 5.6 | 20.5 ± 2.7 |  | 44 ± 14 | 16.5 ± 7.3 | 13.7 ± 4.4 |  | 54.6 ± 19 | 12.4 ± 9 | 8.93 ± 1.3 |  | 71.2 ± 23 | 93.1 ± 20 | 97.9 ± 20 | 86.6 ± 8.6 | 83.4 ± 9 |
| CN1CCc2c(c3ccccc3n2Cc2ccc(C(=O)NO)cc2)C1 [TubastatinA] | 80 ± 12 | 74 ± 43 | 93.1 ± 40 | 40.4 ± 1.6 | 98.7 ± 12 | 97.3 ± 11 | 116.9 ± 0.46 | 81.4 ± 33 | 122 ± 20 | 88.7 ± 16 | 114 ± 8.2 | 66 ± 2.6 | 81.3 ± 19 | 95.1 ± 14 | 138 ± 27 | 50.6 ± 17 | 104 ± 5.4 | 59.2 ± 14 | 86.4 ± 15 | 25.7 ± 14 |  |  |  |  |  |
| Cc1onc(-c2ccccc2)c1-c1ccc(S(N)(=O)=O)cc1 [Valdecoxib] | 95.3 ± 73 | 76.8 ± 16 | 102 ± 37 | 112 ± 1.4 | 101 ± 5.5 | 107 ± 17 | 102 ± 21 | 99.62 ± 0.51 | 111 ± 12 | 91.8 ± 8.2 | 99.8 ± 13 | 98.4 ± 16 | 100 ± 22 | 113 ± 13 | 87.1 ± 4.7 | 82.6 ± 1.5 | 76.8 ± 16 | 86.5 ± 37 | 88.5 ± 38 | 124 ± 34 |  |  |  |  |  |
| C[C@]1(c2nc3c(C(N)=O)cccc3[nH]2)CCCN1 [Veliparib] | 88.9 ± 56 | 96.9 ± 12 | 97.1 ± 24 | 51.4 ± 4.1 | 109 ± 41 | 116 ± 15 | 118 ± 38 | 91.9 ± 25 | 106 ± 11 | 104 ± 4.2 | 107 ± 18 | 89.6 ± 4.9 | 135 ± 51 | 144 ± 30 | 148 ± 33 | 97.2 ± 8.6 | 107 ± 26 | 104 ± 11 | 97.2 ± 27 | 72.7 ± 38 |  |  |  |  |  |
| CC[C@]1(O)C[C@H]2CN(CCc3c([nH]c4ccccc34)[C@@](C(=O)OC)(c3cc4c(cc3OC)N(C=O)[C@H]3[C@@](O)(C(=O)OC)[C@H](OC(C)=O)[C@]5(CC)C=CCN6CC[C@]43[C@@H]65)C2)C1 [Vincristine] | 36.6 ± 5.9 | 22.3 ± 1.7 | 9.69 ± 0.85 | 17.1 ± 4.5 | 34.7 ± 4.6 | 22.5 ± 6.4 | 28.17 ± 0.087 | 34.5 ± 1.1 | 23.2 ± 4 | 22.5 ± 2.4 | 21.8 ± 2.9 | 21.1 ± 1.5 | 30.7 ± 3.3 | 14.4 ± 2.7 | 9.81 ± 3.5 | 8.55 ± 3.1 | 5.25 ± 0.24 | 3.5 ± 2.5 | 8.88 ± 0.92 | 6.97 ± 4.4 |  |  |  |  |  |
| CCC[C@H](NC(=O)/C(C#N)=C/c1cccc(Br)n1)c1ccccc1 [WP1130] | 96.9 ± 44 | 59.7 ± 4.9 | 92.2 ± 22 | 6.81 ± 2.8 | 101 ± 53 | 78.7 ± 6.8 | 100 ± 7 | 8.98 ± 1.4 | 92.9 ± 2.6 | 103 ± 6.8 | 83.8 ± 11 | 6.78 ± 2 | 100 ± 26 | 87.3 ± 10 | 116 ± 47 | 11.7 ± 3.7 | 84 ± 36 | 51.2 ± 6.4 | 111 ± 7.9 | 8.93 ± 1.9 |  |  |  |  |  |
| COCC[n+]1c2c(n(Cc3cnccn3)c1C)C(=O)c1ccccc1C2=O [YM155] | 23.9 ± 13 | 6.08 ± 4.9 | 3.11 ± 2.6 |  | 41.8 ± 5 | 4.66 ± 1.7 | 5.07 ± 2.5 |  | 20.2 ± 2 | 4.12 ± 0.77 | 5.13 ± 0.38 |  | 27.1 ± 0.85 | 6.58 ± 1.3 | 4.86 ± 1.3 |  | 62.2 ± 7.2 | 6.9 ± 0.62 | 4.71 ± 4.5 |  | 87.2 ± 46 | 88.6 ± 16 | 54.7 ± 3.2 | 75.1 ± 3.9 | 79.4 ± 20 |
| FC(F)c1nc2ccccc2n1-c1nc(N2CCOCC2)nc(N2CCOCC2)n1 [ZSTK474] | 85.1 ± 10 | 96.2 ± 4.4 | 53.6 ± 27 | 50 ± 12 | 79.2 ± 5 | 99.2 ± 19 | 70.9 ± 21 | 55.4 ± 3 | 90.3 ± 4.3 | 94.3 ± 9.2 | 83.4 ± 7.9 | 56.2 ± 1.8 | 92.9 ± 15 | 89.6 ± 34 | 81.7 ± 4.7 | 76.3 ± 15 | 93.1 ± 1.6 | 85 ± 15 | 60.2 ± 41 | 39.1 ± 6.5 |  |  |  |  |  |
| O=c1ncccn1[C@@H]1O[C@H](CO)[C@@H](O)[C@H]1O [Zebularine] | 84.7 ± 48 | 66 ± 3.3 | 108 ± 26 | 117 ± 5.5 | 96.6 ± 7.1 | 83.6 ± 14 | 88.3 ± 38 | 119 ± 24 | 112 ± 28 | 107 ± 6.2 | 107 ± 1.8 | 115 ± 7.4 | 108 ± 38 | 121 ± 22 | 93.6 ± 0.27 | 72.7 ± 13 | 98.7 ± 28 | 83.6 ± 30 | 83.8 ± 14 | 106 ± 9.4 |  |  |  |  |  |
